Assay results: patent US20260209211A1, “CYCLIN K DEGRADER AND USE THEREOF” (ADLAI NORTYE BIOPHARMA CO., LTD., priority 2022, published 2026)
Like-named read-outs stand apart in the source and are kept apart here.

How the values were obtained:
[1] = test system: HGC27 (Human Gastric Cancer Cell); test: Bioactivity assay for HGC27 cell growth inhibition (CellTiter-Glo); format: cell-based; conditions: read-out: HGC27 CTG IC50
Experimental: This detection method is used to evaluate the biological activity of the compounds of the present disclosure at the cellular level.
(§1) HGC27 cells (purchased from the Chinese Academy of Sciences) were harvested, resuspended in complete medium and adjusted to a cell density of 0.2×10^6 cells per ml. The cell suspension was added to a 96-well plate at a volume of 100 μL per well and cultured overnight in a 37° C., 5% CO2 incubator. Prepare the test compound and add it to the cell plate so that the highest concentration of the compound is 10 μM. Set 8 concentration points according to 3-fold dilution. At the same time, 100% inhibition control wells were set, that is, wells with no cells but only an equal volume of complete culture medium; and 0% inhibition control wells, that is, wells with cells added with 0.1% DMSO. The cell plate was cultured at 37° C. and 5% CO2 for 24 hours. Remove the cell culture plate and add 25 μl CellTiter-Glo® Luminescent Cell Viability Reagent (promega cat #G7573) to each well. Incubate in the dark for 10 minutes and then transfer 100 μL to a white plate and use Molecular Devices SpectraMax i3 to detect chemiluminescence. The inhibition rate was calculated using the following formula for data processing: compound inhibition rate=(0% inhibition control well signal−compound treatment well signal)/(0% inhibition control well signal−100% inhibition control well signal)*100%. The calculated data were fitted with four parameters using GraphPad Prism software and the corresponding IC50 was calculated.

[2] = test system: NCI-N87 (Human Gastric Cancer Cell); test: Bioactivity detection of NCI-N87 cell growth inhibition (CellTiter-Glo); format: cell-based; conditions: NCI-N87 cells, 72 hours, highest concentration 10 μM, read-out: N87 CTG IC50
Experimental: This detection method is used to evaluate the biological activity of the compounds described in this disclosure at the cellular level.
as §1, with “NCI-N87” for “HGC27”, “0.1×10^6” for “0.2×10^6”, “72” for “24”, “CellTiter-Glo” for “CellTiter-Glo®”, “signal)[…].” for “signal)*100%.”

[3] = HGC-27, HGC27 cells, 24 hours, CellTiter-Glo, highest concentration 10 μM

With FC(F)(F)c1cnc(NCc2ccc3c(c2)[nH]c2cccnc23)nc1OC1COC1 [Compound 2] as the compound, how does the IC50 [1, 3] read?
Its IC50 is 139 nM.

What about the IC50 [2] of the same compound?
Its IC50 is 26 nM.

Cn1c2cc(CNc3ncc(C(F)(F)F)c(OC4COC4)n3)ccc2c2ncccc21 [Compound 3] was tested. Which IC50 [1, 3] did it give?
The IC50 was 342 nM.

For CC[C@@H](Nc1nc(NCc2ccc3c(c2)[nH]c2cccnc23)ncc1C(F)(F)F)C(N)=O [Compound 4], which IC50 [1, 3] is on record?
The IC50 was 238 nM.

With C[C@@H](O)[C@@H](CO)Nc1nc(NCc2ccc3c(c2)[nH]c2cccnc23)ncc1C(F)(F)F [Compound 5] as the compound, how does the IC50 [1, 3] read?
The IC50 was 30 nM.

Cc1ccnc2c1[nH]c1cc(CNc3ncc(C(F)(F)F)c(OC4COC4)n3)ccc12 [Compound 6] was tested. Which IC50 [1, 3] did it give?
The IC50 was 145 nM.

How did the IC50 [1, 3] turn out when OCc1ccnc2c1[nH]c1cc(CNc3ncc(C(F)(F)F)c(OC4COC4)n3)ccc12 [Compound 7] was run?
Its IC50 is 43 nM.

For Cc1ccc2[nH]c3cc(CNc4ncc(C(F)(F)F)c(OC5COC5)n4)ccc3c2n1 [Compound 8], which IC50 [1, 3] is on record?
Its IC50 is 308 nM.

For FC(F)(F)c1cnc(NCc2ccc3c(c2)oc2cccnc23)nc1OC1COC1 [Compound 9], which IC50 [1, 3] is on record?
Its IC50 is 292 nM.

With FC(F)(F)c1cnc(NCc2ccc3c(n2)[nH]c2cccnc23)nc1OC1COC1 [Compound 10] as the compound, how does the IC50 [1, 3] read?
The IC50 was 225 nM.

C[C@@H](O)[C@@H](C)Oc1nc(NCc2ccc3c(c2)[nH]c2cccnc23)ncc1C(F)(F)F [Compound 11] was tested. Which IC50 [1, 3] did it give?
Its IC50 is 62 nM.

How did the IC50 [1, 3] turn out when C[C@@H](O)[C@@H](CO)Nc1nc(NCc2ccc3c(c2)[nH]c2c(CO)ccnc23)ncc1C(F)(F)F [Compound 13] was run?
The IC50 was 41 nM.

What about the IC50 [2] of the same compound?
Its IC50 is 13 nM.

For FC(F)(F)c1cnc(NCc2ccc3c(c2)[nH]c2ncsc23)nc1OC1COC1 [Compound 14], which IC50 [1, 3] is on record?
Its IC50 is 75 nM.

For Cc1cc2c(cc1CNc1ncc(C(F)(F)F)c(OC3COC3)n1)[nH]c1cccnc12 [Compound 16], which IC50 [1, 3] is on record?
The IC50 was 520 nM.

With NCc1ccnc2c1[nH]c1cc(CNc3ncc(C(F)(F)F)c(OC4COC4)n3)ccc12 [Compound 19] as the compound, how does the IC50 [1, 3] read?
Its IC50 is 62 nM.

FC(F)(F)c1cnc(NCc2cc3[nH]c4cccnc4c3s2)nc1OC1COC1 [Compound 20] was tested. Which IC50 [1, 3] did it give?
The IC50 was 454 nM.

With CC[C@@H](Nc1nc(NCc2ccc3c(c2)[nH]c2c(CO)ccnc23)ncc1C(F)(F)F)[C@@H](C)O [Compound 23] as the compound, how does the IC50 [1, 3] read?
Its IC50 is 13 nM.

Which IC50 [1, 3] does the source give for N#Cc1cccc2c3ccc(CNc4ncc(C(F)(F)F)c(OC5COC5)n4)cc3nn12 [Compound 24] here?
Its IC50 is 80 nM.

OCc1cccc2c3ccc(CNc4ncc(C(F)(F)F)c(OC5COC5)n4)cc3nn12 [Compound 26] was tested. Which IC50 [1, 3] did it give?
The IC50 was 387 nM.

With C[C@@H](O)[C@@H](C)Oc1nc(NCc2ccc3c(c2)[nH]c2c(CN)ccnc23)ncc1C(F)(F)F [Compound 27] as the compound, how does the IC50 [1, 3] read?
The IC50 was 21 nM.

NCc1cccc2c3ccc(CNc4ncc(C(F)(F)F)c(OC5COC5)n4)cc3nn12 [Compound 28] was tested. Which IC50 [1, 3] did it give?
The IC50 was 313 nM.

How did the IC50 [1, 3] turn out when FC(F)(F)c1cnc(NCc2ccc3c(c2)[nH]c2scnc23)nc1OC1COC1 [Compound 29] was run?
The IC50 was 374 nM.

Which results are given for CC[C@@H](Nc1nc(NCc2ccc3c(c2)[nH]c2c(CN)ccnc23)ncc1C(F)(F)F)C(N)=O [Compound 33]?
IC50 [1, 3]: 32 nM; IC50 [2]: 10 nM

For C[C@@H](O)[C@@H](C)Nc1nc(NCc2ccc3c(c2)[nH]c2c(CN)ccnc23)ncc1C(F)(F)F [Compound 34], which IC50 [1, 3] is on record?
Its IC50 is 7 nM.

What about the IC50 [2] of the same compound?
Its IC50 is 1.7 nM.

How did the IC50 [1, 3] turn out when COc1ccnc2c1[nH]c1cc(CNc3ncc(C(F)(F)F)c(OC4COC4)n3)ccc12 [Compound 35] was run?
Its IC50 is 120 nM.

Which IC50 ([1]; HGC-27, 24 h) does the source give for FC(F)(F)c1cnc(NCc2ccc3c(c2)nn2cccnc32)nc1OC1COC1 [Compound 36] here?
The IC50 was 133 nM.

What does the source list for OCc1ccnc2c3ccc(CNc4ncc(C(F)(F)F)c(OC5COC5)n4)cc3nn12 [Compound 39]?
IC50 [1, 3]: 54 nM; IC50 [2]: 9 nM

Which results are given for CC[C@@H](Nc1nc(NCc2ccc3c(c2)nn2c(CO)ccnc32)ncc1C(F)(F)F)C(N)=O [Compound 40]?
IC50 [1, 3]: 121 nM; IC50 [2]: 7 nM
